Test results published in PMC5463454 (Cancer discovery, 2016).
Read-outs that look alike come from different tables or passages of the source.

Tests used:
cancer cell lines = experiment: Cell viability assay; format: cell-based
[1] = Phase I safety and tolerability

Structure (SMILES): CC(C)NC[C@@H](C(=O)N1CCN(c2ncnc3c2[C@H](C)C[C@H]3O)CC1)c1ccc(Cl)cc1 [Ipatasertib]
- IC50 (cancer cell lines; read-out: mean IC50 (±SEM), cell viability, cell lines with PTEN loss or PIK3CA mutations, n = 60): 4.8 ± 0.56 µM
- IC50 (cancer cell lines; read-out: mean IC50, cell viability, cells with PIK3CA alterations, n = 40): 5 ± 0.71 µM
- IC50 (cancer cell lines; read-out: mean IC50, cell viability, cells with PTEN alterations, n = 33): 3.8 ± 0.73 µM
- IC50 (cancer cell lines; read-out: mean IC50, cell viability, cells without PIK3CA alterations, n = 60): 7.1 ± 0.5 µM
- IC50 (cancer cell lines; read-out: mean IC50, cell viability, cells without PTEN alterations, n = 67): 7.4 ± 0.46 µM
- IC50 (cancer cell lines; read-out: median IC50, cell viability, cell lines with PTEN loss or PIK3CA mutations, n = 60): 2.2 µM
- IC50 (cancer cell lines; read-out: median IC50, cell viability, cells with PIK3CA alterations, n = 40): 2.2 µM
- IC50 (cancer cell lines; read-out: median IC50, cell viability, cells with PTEN alterations, n = 33): 1.3 µM
- IC50 (cancer cell lines; read-out: median IC50, cell viability, cells without PIK3CA alterations, n = 60): 10 µM
- IC50 (cancer cell lines; read-out: median IC50, cell viability, cells without PTEN alterations, n = 67): 10 µM
- maximum tolerated dose (MTD) ([1]; PO QD, 21/7 dosing schedule): 600 mg
- grade 4 AEs or deaths related to ipatasertib ([1]; all doses): no grade 4 AEs or deaths
